The test system of data set [1] is female flies (houseflies). The data set can be described thus: Synergisability with sesamex, 2 μg per fly pretreatment. Conditions: for Approx. Synergistic factor: sesamex, 2 μg. per fly; for LD 50 active compound + synergist: pretreated with 2 μg. per fly sesamex; for LD 50 active compound only: untreated flies. The format is in vivo, Musca domestica. The procedure: (§1) Female flies were treated on the thorax with a one microliter drop of insecticide dissolved in acetone. Two replicates of 15 flies were used at each dose rate and 6 dose rates were used per compound under test. After treatment, the flies were maintained at a temperature of 20° C.±1° and kill was assessed 24 and 48 hours after treatment. LD50 values were calculated in micrograms of insecticide per fly and relative toxicities were calculated from the inverse ratios of the LD50 values.

Data set [2] has as its system mustard beetles (Phaedon cochleariae Fab). The data set is described as follows: Relative toxicity to mustard beetles, topical micro drop. Conditions: for Relative Toxicity, Mustard Beetles: 5-benzyl-3-furylmethyl (1R)-trans-chrysanthemate = 1000, inverse ratio of LD50, topical, 48 hours. The format is in vivo. As for the experimental part:
(§2) The toxicity of these new esters was tested by the procedure described in detail in our above mentioned application and the following results were obtained:
(§3) The insecticidal acitivity of the esters of the invention was assessed against houseflies and mustard beetles using the following techniques:
Acetone solutions of the test compound were applied ventrally to adult mustard beetles using a micro drop applicator. The treated insects were maintained for 48 hours after which time kill is assessed. Two replicates of 40 to 50 mustard beetles were used at each dose level and 3 to 4 dose levels were used for each compound. Again, LD50 values were calculated and relative toxicities were calculated for the inverse ratios of LD50 (see Elliott et al, J. Sci. Food Agric. 20, 561, (1969)).
(§4) Relative toxicities were calculated by comparison with 5-benzyl-3-furylmethyl(1R)-trans-chrysanthemate which is one of the most toxic chrysanthemate esters known to houseflies and mustard beetles, its toxicity being about 24 times that of allethrin to houseflies and 65 times that of allethrin to mustard beetles.

The subject of data set [3] is houseflies (Musca domestica). The data set is described as follows: Relative toxicity to houseflies, topical drop on thorax. The format is in vivo. Conditions: for Relative Toxicity, Houseflies: 5-benzyl-3-furylmethyl (1R)-trans-chrysanthemate = 1000, inverse ratio of LD50, topical, female flies. The procedure:
as §2, §3
as §1, with “values. (see Sawicki et al, Bulletin of the World Health Organization, 35,893, (1966) and Sawicki et al, Entomologia and Exp. Appl. 10, 253, (1967)).” for “values.”
as §4

The test system of data set [4] is female flies (houseflies). The data set is described as follows: Synergisability with Sesamex, 5 micrograms per fly 3 hours before. Conditions: for LD50 Active compound (flies pretreated with synergist): 5 micrograms per fly Sesamex 3 hours before; for Approx. synergist factor: Sesamex, 5 micrograms per fly; for LD 50 active compound only: without synergist. Format: in vivo, Musca domestica. As for the experimental part:
The following results were obtained
By repeating the above synergisability test but pretreating flies instead with 5 micrograms per fly of the synergist Sesamex 3 hours before applying the pyrethroid, the following results were obtained: […]

A short description of data set [5]: Mammalian toxicity in rats. Conditions: rat, in vivo.
The subject of data set [6] is American cockroach, Periplaneta americana L. The data set is described as follows: Toxicity relative to bioresmethrin against American cockroach. The format is in vivo.
The next data set relates to female Musca domestica. The data set can be described thus: Topical application of pyrethroids alone and with piperonyl butoxide or Tropital. Format: in vivo. An excerpt:
Topical application of pyrethroids alone and in combination with synergist gave the following LD50 results in micrograms with female Musca domestica: […]

Data set [7] relates to Ephestia kuhniella and Venturia canescens. The data set can be described thus: Selective toxicity to Ephestia compared to Venturia (LD50 ratio). Conditions: ratio from relative toxicity (LD50). Format: in vivo. An excerpt:
Experiments to compare the relative toxicity (LD50) of compound P39E with certain related compounds have been carried out towards both Ephestia kuhniella and Venturia canescens so that the relative toxicity to the two species can be calculated. […]

`CC(C)=CC1C(C(=O)OCc2coc(Cc3ccccc3)c2)C1(C)C` (racemic) [5-benzyl-3-furyl methyl (1RS)--cis-trans-chrysanthemate, reference compound]: the “Approx. Synergistic factor” value in data set [1] was approximately 13.

Consider `CC1(C)[C@H](C=C(Cl)Cl)[C@H]1C(=O)OCc1cccc(Oc2ccccc2)c1` (racemic) [Compound P21F, 3-Phenoxybenzyl(1RS)-trans-2,2-dimethyl-3-(2,2-dichlorovinyl)cyclopropane carboxylate], for which, in data set [1], the “LD 50 active compound + synergist” value stood at 0.00033 μg. per female fly, the “Approx. Synergistic factor” value is reported as approximately 39 and the “LD 50 active compound only” value is listed as 0.013 μg. per female fly. In data set [2], the “Relative Toxicity, Mustard Beetles” value amounted to 790. For the same compound, the “Relative Toxicity, Houseflies” value in data set [3] is recorded as 400.

As for `CC1(C)C(C=C(Cl)Cl)C1C(=O)OC(C#N)c1cccc(Oc2ccccc2)c1` (racemic) [Compound P21P, (αRS)-cyano-3-phenoxybenzyl-(1RS)-cis-trans-3-(2,2-dichlorovinyl)-2,2-dimethyl cyclopropane carboxylate], the “Relative Toxicity, Mustard Beetles” value in data set [2] was not below 5000. For the same compound, in data set [3], the “Relative Toxicity, Houseflies” value is reported as 1300. In data set [4], the “LD50 Active compound (flies pretreated with synergist)” value is 0.00088 µg, the Approx. synergist factor is given as approximately 8.3 and the “LD 50 active compound only” value amounted to 0.0073 µg.

Take `CC1(C)[C@H](C(=O)OCc2coc(Cc3ccccc3)c2)[C@@H]1C=C(Cl)Cl` (relative stereo) [Compound P21D]: in data set [1], the “LD 50 active compound + synergist” value turned out to be 0.00046 μg. per female fly, the “Approx. Synergistic factor” value was approximately 12 and the “LD 50 active compound only” value came to 0.0058 μg. per female fly. In data set [2], the “Relative Toxicity, Mustard Beetles” value was found to be 1700. Further, the “Relative Toxicity, Houseflies” value in data set [3] is listed as 1200.

Consider `CC1(C)[C@H](C(=O)OCc2cccc(Oc3ccccc3)c2)[C@@H]1C=C(Cl)Cl` (relative stereo) [Compound P21G], for which, in data set [1], the “LD 50 active compound + synergist” value is 0.00037 μg. per female fly, the “Approx. Synergistic factor” value is approximately 22 and the “LD 50 active compound only” value was determined as 0.0083 μg. per female fly. In addition, the “Relative Toxicity, Mustard Beetles” value in data set [2] amounted to 780. In data set [3], the “Relative Toxicity, Houseflies” value turned out to be 680.

Take `CC(C)=C[C@@H]1[C@@H](C(=O)OCc2coc(Cc3ccccc3)c2)C1(C)C` [Bioresmethrin, 5-benzyl-3-furylmethyl (1R)--trans-chrysanthemate, reference compound]: the values for the LD50 in data set [5] (iv) and in data set [5] (po) were 340 mg/kg and more than 8000 mg/kg, respectively. Also, in data set [1], the “Approx. Synergistic factor” value was approximately 9.4. The “toxicity, times that of allethrin, to mustard beetles” value in data set [2] (relative to allethrin) is given as approximately 65 times. For the same compound, in data set [3] (relative to allethrin), the “toxicity, times that of allethrin, to houseflies” value was “about 24 times”. For the same compound, in data set [6] (in vivo), the “LD50 (American cockroach)” value turned out to be 2.5 μg/insect.

Regarding `CC/C=C\[C@H]1[C@@H](C(=O)OCc2coc(Cc3ccccc3)c2)C1(C)C` [Compound A cis], in data set [1], the “LD 50 active compound + synergist” value turned out to be 0.0012 μg. per female fly, the “Approx. Synergistic factor” value was approximately 6 and the “LD 50 active compound only” value amounted to 0.0074 μg. per female fly.

Regarding `CC/C=C\[C@@H]1[C@@H](C(=O)OCc2coc(Cc3ccccc3)c2)C1(C)C` [Compound A], in data set [5] (iv), the LD50 stood at 120 mg/kg. Further, the median lethal dose (LD50) in data set [5] (po) is 800 to 1000 mg/kg. For the same compound, in data set [1], the “LD 50 active compound + synergist” value was 0.00033 μg. per female fly, the “Approx. Synergistic factor” value is given as approximately 13 and the “LD 50 active compound only” value worked out at 0.0042 μg. per female fly. Moreover, in data set [2], the “Relative Toxicity, Mustard Beetles” value is on record as 2000. For the same compound, in data set [3], the “Relative Toxicity, Houseflies” value was determined as 1700. In addition, the “LD 50 active compound only” value in the data set on female Musca domestica (alone) came out at 0.034 µg. Besides, in the data set with female Musca domestica (with piperonyl butoxide (1:5)), the “LD50 Active compound + piperonyl butoxide (1:5)” value worked out at 0.015 µg.

As for `CC1(C)[C@H](C(=O)OCc2cccc(Oc3ccccc3)c2)[C@@H]1C=C(Cl)Cl` [Compound P29L], in data set [7], the “Selectivity (ratio of toxicity to Ephestia compared to Venturia)” value stood at 2.3. Besides, the “Relative Toxicity (American cockroach)” value in data set [6] (Bioresmethrin = 100) was 2,100.

For `CC1(C)[C@H](C(=O)OCc2cccc(Oc3ccccc3)c2)[C@@H]1C=C(F)F` [Compound P31E], in data set [2], the “Relative Toxicity, Mustard Beetles” value is 850. For the same compound, in data set [3], the “Relative Toxicity, Houseflies” value is on record as 1800.

As to `CC1(C)[C@H](C(=O)OC(C#N)c2cccc(Oc3ccccc3)c2)[C@@H]1C=C(F)F` (stereo partly drawn) [Compound P31F], the “Relative Toxicity, Mustard Beetles” value in data set [2] is reported as 2200. Further, the “Relative Toxicity, Houseflies” value in data set [3] stood at 1200.

With `CC1(C)[C@H](C(=O)OCc2cccc(C(=O)c3ccccc3)c2)[C@@H]1C=C(Br)Br` [Compound P39A, 3-benzoylbenzyl(1R)cis-2,2-dimethyl-3-(2,2-dibromovinyl)-cyclopropane carboxylate], the “Relative Toxicity, Mustard Beetles” value in data set [2] was 830. Also, the “Relative Toxicity, Houseflies” value in data set [3] is reported as 50.

For the compound `CC1(C)[C@H](C=C(F)F)[C@H]1C(=O)OCc1cccc(C(=O)c2ccccc2)c1` [Compound P39C, 3-benzoylbenzyl(1R)trans-2,2-dimethyl-3-(2,2-difluorovinyl)-cyclopropane carboxylate], in data set [2], the “Relative Toxicity, Mustard Beetles” value was found to be 50. In data set [3], the “Relative Toxicity, Houseflies” value is 6.

For `CC1(C)[C@H](C(=O)OCc2cccc(C(=O)c3ccccc3)c2)[C@@H]1C=C(F)F` [Compound P39D, 3-benzoylbenzyl(1R)-cis-2,2-dimethyl-3-(2,2-difluorovinyl)-cyclopropane carboxylate], the “Relative Toxicity, Mustard Beetles” value in data set [2] was 500. The “Relative Toxicity, Houseflies” value in data set [3] was determined as 20.

Consider `CC/C=C\[C@@H]1[C@@H](C(=O)OCc2cccc(Cc3ccccc3)c2)C1(C)C` [Compound S], for which the “Relative Toxicity, Mustard Beetles” value in data set [2] came to 170. Moreover, the “Relative Toxicity, Houseflies” value in data set [3] is reported as 120.

For `CC1(C)[C@H](C=CCl)[C@H]1C(=O)OCc1coc(Cc2ccccc2)c1` [K], the “Relative Toxicity, Mustard Beetles” value in data set [2] came to 1600. Further, the “Relative Toxicity, Houseflies” value in data set [3] stood at 1300.

For `C#CC(OC(=O)[C@@H]1[C@H](C=C(Br)Br)C1(C)C)c1cccc(Oc2ccccc2)c1` (stereo partly drawn) [ME7], the “Relative Toxicity, Mustard Beetles” value in data set [2] is recorded as 5000. In addition, the “Relative Toxicity, Houseflies” value in data set [3] is listed as 1100.

With `C=CCC1=C(C)C(OC(=O)[C@@H]2[C@@H](C=C(F)F)C2(C)C)CC1=O` (stereo partly drawn) [ME9], the “Relative Toxicity, Mustard Beetles” value in data set [2] was 50. The “Relative Toxicity, Houseflies” value in data set [3] came to 50.

As to `C=CCC1=C(C)C(OC(=O)[C@@H]2[C@H](C=C(F)F)C2(C)C)CC1=O` (stereo partly drawn) [ME10], the “Relative Toxicity, Mustard Beetles” value in data set [2] worked out at 30. The “Relative Toxicity, Houseflies” value in data set [3] was 40.

Regarding `CC1(C)C(C=C(Br)Br)C1C(=O)OC(C#N)c1cccc(Oc2ccccc2)c1` [P29B (crystalline isomer), (αS)-cyano-3-phenoxybenzyl(1R)cis-2,2-dimethyl-3-(2,2-dibromovinyl)cyclopropane carboxylate], the “Relative Toxicity, Mustard Beetles” value in data set [2] is on record as 14000. For the same compound, the “Selectivity (ratio of toxicity to Ephestia compared to Venturia)” value in data set [7] is 3.6. Further, in data set [3], the “Relative Toxicity, Houseflies” value is 23000. Moreover, in data set [4], the “LD50 Active compound (flies pretreated with synergist)” value is 0.00023 µg, the Approx. synergist factor is recorded as approximately 7 and the “LD 50 active compound only” value is 0.0016 µg.

Consider `CC1(C)C(C=C(Br)Br)C1C(=O)OC(C#N)c1cccc(Oc2ccccc2)c1` [P29B (non-crystalline isomer), (αR)-cyano-3-phenoxybenzyl(1R)cis-2,2-dimethyl-3-(2,2-dibromovinyl)cyclopropane carboxylate], for which the “Relative Toxicity, Mustard Beetles” value in data set [2] is on record as 4000. The “Relative Toxicity, Houseflies” value in data set [3] came out at 3500.

As to `C=C/C=C\CC1=C(C)[C@@H](OC(=O)[C@@H]2[C@@H](C=C(C)C)C2(C)C)CC1=O` [Pyrethrin I, reference compound], the “Relative Toxicity, Mustard Beetles” value in data set [2] is given as 1600. The “Relative Toxicity, Houseflies” value in data set [3] was found to be 12.

On to `C=CCC1=C(C)C(OC(=O)[C@@H]2[C@@H](/C=C\CC)C2(C)C)CC1=O` (stereo partly drawn) [Q], for which, in data set [2], the “Relative Toxicity, Mustard Beetles” value is recorded as 69. For the same compound, the “Relative Toxicity, Houseflies” value in data set [3] worked out at 60.

Regarding `CC/C=C\[C@@H]1[C@@H](C(=O)OCc2cccc(Oc3ccccc3)c2)C1(C)C` [T], the “Relative Toxicity, Mustard Beetles” value in data set [2] is 300. In addition, the “Relative Toxicity, Houseflies” value in data set [3] is 240.

Broadly, the LD50 is the dose expected to kill half of the subjects tested. A high value points to lower toxicity.

The values above are taken from patent US4622337A, “2,2-dimethyl-3-(2-halovinyl)cyclopropane carboxlic acid ester pesticides” (priority 1972, dated 1986).
